Results as given in BindingDB's records for patent US20240174690 (Boehringer Ingelheim International, 2024).
pIC50: −log10 of the molar value.

Molecular target: GTPase KRas [G12C,C51S,C80L,C118S] (Homo sapiens, UniProt P01116, C118S/C51S/C80L/G12C)
Assay: AlphaScreen Binding Assay
Text: […]

Chain of GTPase KRas [G12C,C51S,C80L,C118S] (P01116 whole entry G12C/C51S/C80L/C118S, looked up): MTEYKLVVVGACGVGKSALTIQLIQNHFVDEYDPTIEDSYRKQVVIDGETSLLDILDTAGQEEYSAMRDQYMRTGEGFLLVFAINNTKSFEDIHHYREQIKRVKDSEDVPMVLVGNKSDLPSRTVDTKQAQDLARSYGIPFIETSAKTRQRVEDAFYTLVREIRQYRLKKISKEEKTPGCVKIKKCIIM

pIC50: 8.40
SMILES: C[C@H](Oc1cc(-n2nccc2-c2ccncc2)nc(-c2noc3c2CCC[C@@]32CCCc3sc(N)c(C#N)c32)n1)[C@@H]1CCCN1C [US20240174690, Example II-131]
